{"source": "patent EP0364584A1", "about": "“ANTIDOTE FOR ORGANIC PHOSPHORUS COMPOUND POISONING” (priority 1988, dated 1989)", "key": {"[1]": {"target": "T1, Azetylcholinesterase des menschlichen Bluts (Homo sapiens, UniProt P22303)", "T1 construct": "Cholinesterase des Grundgerüstes der Erythrozyten des menschlichen Bluts; from tissue; host or cells: human erythrocyte stroma (ghosts)", "T1 sequence (P22303 other isoform, or with tags, fused parts or gaps)": "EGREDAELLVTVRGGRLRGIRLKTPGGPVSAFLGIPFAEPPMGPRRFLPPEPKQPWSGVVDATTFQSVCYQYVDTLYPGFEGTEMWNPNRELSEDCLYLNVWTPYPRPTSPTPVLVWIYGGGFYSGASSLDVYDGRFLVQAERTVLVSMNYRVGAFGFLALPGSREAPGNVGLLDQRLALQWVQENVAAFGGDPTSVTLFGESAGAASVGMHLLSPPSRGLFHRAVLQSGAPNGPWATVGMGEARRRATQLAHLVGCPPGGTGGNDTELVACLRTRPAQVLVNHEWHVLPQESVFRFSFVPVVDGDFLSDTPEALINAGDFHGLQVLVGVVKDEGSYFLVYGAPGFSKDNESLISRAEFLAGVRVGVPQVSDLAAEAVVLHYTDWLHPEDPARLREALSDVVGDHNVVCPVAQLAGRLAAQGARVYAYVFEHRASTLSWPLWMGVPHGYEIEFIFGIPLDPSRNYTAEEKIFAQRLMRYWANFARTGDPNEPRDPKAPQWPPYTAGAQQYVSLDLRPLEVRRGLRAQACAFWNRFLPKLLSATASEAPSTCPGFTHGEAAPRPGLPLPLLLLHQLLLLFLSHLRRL", "assay": "Reactivation in vitro of erythrocyte cholinesterase inhibited by organophosphorus compounds (potentiometric titration)", "assay_type": "biochemical", "details": "reactivator 1.10^-4 M01/1, 25°C, pH 7,5"}, "[2]": {"assay": "Content of the drugs in blood and brain after intramuscular administration (Askew method)", "assay_type": "in vivo, Ratten", "details": "rat, im, Ratten; for concentration at 2 h: 2 St., read-out: Konzentration (µg/g) 2 St. (converted); for concentration at 5 min: read-out: Konzentration (µg/g) 5 min; for concentration at 20 min: read-out: Konzentration (µg/g) 20 min (converted); for concentration at 0.5 h: 30 min, read-out: Konzentration (µg/g) 30 min; for concentration at 1 h: I St., read-out: Konzentration (µg/g) I St.; for concentration at 10 min: IO min, read-out: Konzentration (µg/g) IO min (converted)", "protocol": "Mit Hilfe der Methode von Askew (1956) wurde in der Dynamik der Gehalt des erfindungsgemäßen Arzneimittels im Blut und Gehirn der Tiere untersucht. Die Untersuchungen wurden im Vergleich zum bekannten Präparak TMB-4 vorgenommen. Die Geschwindigkeit des Eindringens beider Präparate ins Blut und deren Konzentration wurden bei der-intramuskulären Einführung in Dosen von 20 ..und 50 mg/kg und der Gehirnspiegel - in einer Dosis von 50 mg/kg bestimmt. […]\nEs wurde festgestellt, daß die Präparate schnell (nach 5 min) von der Einführungsstelle ins Blut eindringen, dabei wurde unabhängig von der Prüfdosis der Präparate deren Maximalgehalt im Blut 20 min nach der Einführung beobachtet, zwar erhöhte die Vergrößerung der Dosis der Präparate bis 50 mg/kg wesentlich deren Konzentrationsniveau während der ganzen Beobachtungsfrist.\nDie im Vergleich zu TMB-4 durchgeführten Untersuchungen haben ergeben, dass während der ersten Stunde der Blutgehalt und das Anwachsen der Konzentrationen beider Präparate gleich waren. […] Die Untersuchungsergebnisse sind in der Tabelle 3 angeführt.\nNach den Ergebnissen der durchgeführten Untersuchungen wurde festgestellt, dass das erfindungsgemässe Arz- neimittel bei der intramuskulären Einführung schnell ins Blut und Gehirn des Tieres eindringt und zum Unterschied von TMB-4 eine längere Zeit im 3lutstrom zirkuliert und von 5 min an bis 4 Stunden Beobachtung im Gehirn in bedeutend grösseren Mengen enthalten ist."}, "[3]": {"details": "blood, Blut, Dosis 20 mg/kg intramuskulär"}, "[4]": {"details": "blood, Blut, Dosis 50 mg/kg intramuskulär"}, "[5]": {"details": "brain, Gehirn, Dosis 50 mg/kg intramuskulär"}}, "note": "Where two headings read alike, the source gives them in different places.", "data": [{"smiles": "ON=Cc1cc[n+](CCC[n+]2ccc(C=NO)cc2)cc1", "note": "[TMB-4, Trimethylen-1,3-bis-(4-oxyiminomethylpyridinium)bromid, reference compound]", "values": [{"measurement": "activity at 100 µM", "setting": "[1]; 0.5 h, pH 7, inhibited with O,O-Dimethyl-(2,2,2-trichlor-1-oxyäthyl) phosphonat, 0,5 h, read-out: Aktivität der Azetylcholinesterase in % (Reaktivationszeit in Stunden) 0,5", "value": 40, "unit": "%"}, {"measurement": "activity at 100 µM", "setting": "[1]; 0.5 h, pH 7, inhibited with O,O-Dimethyl-S-(1,2-dikarbäthoxyäthyl)-dithiophosphat, 0,5 h, read-out: Aktivität der Azetylcholinesterase in % (Reaktivationszeit in Stunden) 0,5", "value": 27.4, "unit": "%"}, {"measurement": "activity at 100 µM", "setting": "[1]; 1 h, pH 7, inhibited with O,O-Dimethyl-(2,2,2-trichlor-1-oxyäthyl) phosphonat, 1 h, read-out: Aktivität der Azetylcholinesterase in % (Reaktivationszeit in Stunden) 1", "value": 51, "unit": "%"}, {"measurement": "activity at 100 µM", "setting": "[1]; 1 h, pH 7, inhibited with O,O-Dimethyl-S-(1,2-dikarbäthoxyäthyl)-dithiophosphat, 1 h, read-out: Aktivität der Azetylcholinesterase in % (Reaktivationszeit in Stunden) 1", "value": 43, "unit": "%"}, {"measurement": "activity at 100 µM", "setting": "[1]; 2 h, pH 7, inhibited with O,O-Dimethyl-(2,2,2-trichlor-1-oxyäthyl) phosphonat, 2 h, read-out: Aktivität der Azetylcholinesterase in % (Reaktivationszeit in Stunden) 2", "value": 64.2, "unit": "%"}, {"measurement": "activity at 100 µM", "setting": "[1]; 2 h, pH 7, inhibited with O,O-Dimethyl-S-(1,2-dikarbäthoxyäthyl)-dithiophosphat, 2 h, read-out: Aktivität der Azetylcholinesterase in % (Reaktivationszeit in Stunden) 2", "value": 52.9, "unit": "%"}, {"measurement": "concentration at 2 h", "setting": "[2]; [3]", "value": 0.41, "unit": "µg/g"}, {"measurement": "concentration at 5 min", "setting": "[2]; [3]", "value": 3.6, "unit": "µg/g"}, {"measurement": "concentration at 20 min", "setting": "[2]; [3]", "value": 4.85, "unit": "µg/g"}, {"measurement": "concentration at 0.5 h", "setting": "[2]; [3]", "value": 4.35, "unit": "µg/g"}, {"measurement": "concentration at 1 h", "setting": "[2]; [3]", "value": 2.75, "unit": "µg/g"}, {"measurement": "concentration at 10 min", "setting": "[2]; [3]", "value": 4.42, "unit": "µg/g"}, {"measurement": "concentration at 2 h", "setting": "[2]; [4]", "value": 2.42, "unit": "µg/g"}, {"measurement": "concentration at 3 h", "setting": "[2]; blood, Blut, Dosis 50 mg/kg intramuskulär, 3 St., read-out: Konzentration (µg/g) 3 St.", "value": 1.95, "unit": "µg/g"}, {"measurement": "concentration at 5 min", "setting": "[2]; [4]", "value": 16.6, "unit": "µg/g"}, {"measurement": "concentration at 20 min", "setting": "[2]; [4]", "value": 18.4, "unit": "µg/g"}, {"measurement": "concentration at 0.5 h", "setting": "[2]; [4]", "value": 15.1, "unit": "µg/g"}, {"measurement": "concentration at 1 h", "setting": "[2]; [4]", "value": 11.5, "unit": "µg/g"}, {"measurement": "concentration at 10 min", "setting": "[2]; [4]", "value": 21.1, "unit": "µg/g"}, {"measurement": "concentration at 2 h", "setting": "[2]; [5]", "value": 0.34, "unit": "µg/g"}, {"measurement": "concentration at 5 min", "setting": "[2]; [5]", "value": 0.86, "unit": "µg/g"}, {"measurement": "concentration at 20 min", "setting": "[2]; [5]", "value": 2.32, "unit": "µg/g"}, {"measurement": "concentration at 0.5 h", "setting": "[2]; [5]", "value": 2.28, "unit": "µg/g"}, {"measurement": "concentration at 1 h", "setting": "[2]; [5]", "value": 1.5, "unit": "µg/g"}, {"measurement": "concentration at 10 min", "setting": "[2]; [5]", "value": 0.98, "unit": "µg/g"}]}]}
